Measurements as given in patent publication US12527325B2, “Pesticidally active diazine-amide compounds” (SYNGENTA CROP PROTECTION AG, priority 2019, dated 2026).

How the values were obtained:
Assay type in all cases: in vivo
Chilo suppressalis = test: Example B4: Chilo suppressalis (Striped Rice Stemborer); details: 144 h, application rate of 200 ppm, artificial diet, L2 larvae, 6 days after infestation, read-out: control in at least one of the three categories (mortality, anti-feedant or growth inhibition)
In short: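 Artificial diet was treated with aqueous dilutions made from 10'000 ppm DMSO stocks, dried, then infested with L2 larvae at 6–8 per well. Mortality, antifeedant effect and growth inhibition were assessed against untreated samples 6 days after infestation.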

Myzus persicae [1] = test: Example B6: Myzus persicae (Green Peach Aphid): Feeding/Contact Activity; details: foliar, 144 h, application rate of 200 ppm, sprayed sunflower leaf discs, aphid population of mixed ages, 6 days after infestation
Protocol: Example B6: Myzus persicae (Green Peach Aphid): Feeding/Contact Activity
Sunflower leaf discs were placed onto agar in a 24-well microtiter plate and sprayed with aqueous test solutions prepared from 10′000 ppm DMSO stock solutions. After drying, the leaf discs were infested with an aphid population of mixed ages. The samples were assessed for mortality 6 days after infestation.

Euschistus heros = test: Example B2: Euschistus heros (Neotropical Brown Stink Bug); details: 120 h, application rate of 200 ppm, sprayed soybean leaves, N2 nymphs, 5 days after infestation, read-out: control in at least one of the two categories (mortality or growth inhibition)
Protocol: Example B2: Euschistus heros (Neotropical Brown Stink Bug)
Soybean leaves on agar in 24-well microtiter plates were sprayed with aqueous test solutions prepared from 10′000 ppm DMSO stock solutions. After drying the leaves were infested with N2 nymphs. The samples were assessed for mortality and growth inhibition in comparison to untreated samples 5 days after infestation.

Diabrotica balteata = test: Example B1: Diabrotica balteata (Corn Root Worm); details: 96 h, application rate of 200 ppm, sprayed maize sprouts, L2 larvae, 4 days after infestation, read-out: control in at least one of the two categories (mortality or growth inhibition)
Protocol: Example B1: Diabrotica balteata (Corn Root Worm)
Maize sprouts placed onto an agar layer in 24-well microtiter plates were treated with aqueous test solutions prepared from 10′000 ppm DMSO stock solutions by spraying. After drying, the plates were infested with L2 larvae (6 to 10 per well). The samples were assessed for mortality and growth inhibition in comparison to untreated samples 4 days after infestation.

[2] = tested on: Frankliniella occidentalis; test: Example B3: Frankliniella occidentalis (Western Flower Thrips): Feeding/Contact Activity; details: foliar, 168 h, application rate of 200 ppm, sprayed sunflower leaf discs, population of mixed ages, 7 days after infestation
Protocol: Example B3: Frankliniella occidentalis (Western Flower Thrips): Feeding/Contact Activity
Sunflower leaf discs were placed on agar in 24-well microtiter plates and sprayed with aqueous test solutions prepared from […] stock solutions. After drying the leaf discs were infested with a Frankliniella population of mixed ages. The samples were assessed for mortality 7 days after infestation.

Spodoptera littoralis [3] = test: Example B9: Spodoptera littoralis (Egyptian Cotton Leaf Worm), cotton leaf disc spray; details: foliar, 72 h, application rate of 200 ppm, sprayed cotton leaf discs, L1 larvae, 3 days after infestation, read-out: control in at least one of the three categories (mortality, anti-feedant or growth inhibition)
Myzus persicae [4] = test: Example B7: Myzus persicae (Green Peach Aphid): Systemic Activity; details: 144 h, test rate of 24 ppm, roots of pea seedlings in test solution, 6 days
Protocol: Example B7: Myzus persicae (Green Peach Aphid): Systemic Activity
Roots of pea seedlings infested with an aphid population of mixed ages were placed directly into aqueous test solutions prepared from 10′000 DMSO stock solutions. The samples were assessed for mortality 6 days after placing seedlings into test solutions.

Plutella xylostella [5] = test: Example B5: Plutella xylostella (Diamond Back Moth); details: 192 h, application rate of 200 ppm, 24-well artificial diet, eggs, 8 days after infestation, read-out: control in at least one of the two categories (mortality or growth inhibition)
Protocol: Example B5: Plutella xylostella (Diamond Back Moth)
24-well microtiter plates with artificial diet were treated with aqueous test solutions prepared from 10′000 ppm DMSO stock solutions by pipetting. After drying, Plutella eggs were pipetted through a plastic stencil onto a gel blotting paper and the plate was closed with it. The samples were assessed for mortality and growth inhibition in comparison to untreated samples 8 days after infestation.

Myzus persicae [6] = test: Example B8: Myzus persicae (Green Peach Aphid): Intrinsic Activity; details: 120 h, test rate of 12 ppm, 24-well sucrose solution under Parafilm, 5 days after infestation
From the text: Example B8: Myzus persicae (Green Peach Aphid): Intrinsic Activity
Test compounds prepared from 10′000 ppm DMSO stock solutions were applied by pipette into 24-well microtiter plates and mixed with sucrose solution. The plates were closed with a stretched Parafilm. A plastic stencil with 24 holes was placed onto the plate and infested pea seedlings were placed directly on the Parafilm. The infested plate was closed with a gel blotting paper and another plastic stencil and then turned upside down. The samples were assessed for mortality 5 days after infestation.

Spodoptera littoralis [7] = test: Example B10: Spodoptera littoralis (Egyptian Cotton Leaf Worm), uptake by lettuce roots from agar; details: 144 h, test rate of 12.5 ppm, compound in agar absorbed by lettuce roots, eggs, 6 days after infestation, read-out: control in at least one of the three categories (mortality, anti-feedant, or growth inhibition)
From the text: Example B10: Spodoptera littoralis (Egyptian Cotton Leaf Worm)
Test compounds were applied by pipette from 10′000 ppm DMSO stock solutions into 24-well plates and mixed with agar. Lettuce seeds were placed onto the agar and the multi well plate was closed by another plate which contained also agar. After 7 days the compound was absorbed by the roots and the lettuce grew into the lid plate. The lettuce leaves were then cut off into the lid plate. Spodoptera eggs were pipetted through a plastic stencil onto a humid gel blotting paper and the lid plate was closed with it. The samples were assessed for mortality, anti-feedant effect and growth inhibition in comparison to untreated samples 6 days after infestation.

Plutella xylostella [8] = test: Example B12: Plutella xylostella (Diamondback Moth), 96-well artificial diet; details: 216 h, application rate of 500 ppm, eggs, 9 days after infestation
Protocol: Example B12: Plutella xylostella (Diamondback Moth)
96-well microtiter plates containing artificial diet were treated with aqueous test solutions, prepared from 10′000 ppm DMSO stock solutions, by a liquid handling robot. After drying, eggs (˜30 per well) were infested onto a netted lid which was suspended above the diet. The eggs hatch and L1 larvae move down to the diet. The samples were assessed for mortality 9 days after infestation.

CC(NC(=O)c1cc(OC(F)F)cc(C2(C#N)CC2)c1)c1nccnc1-c1ncccn1 (centres unmarked) [P44, 3-(1-cyanocyclopropyl)-5-(difluoromethoxy)-N-[1-(3-pyrimidin-2-ylpyrazin-2-yl)ethyl]benzamide]
≥ 80%: percent control (mortality, anti-feedant effect or growth inhibition) at 200 ppm (Chilo suppressalis) | mortality at 200 ppm (Myzus persicae [1]) | percent control (mortality or growth inhibition) at 200 ppm (Euschistus heros) | percent control (mortality or growth inhibition) at 200 ppm (Diabrotica balteata) | mortality at 200 ppm [2] | percent control (mortality, anti-feedant effect or growth inhibition) at 200 ppm (Spodoptera littoralis [3]) | mortality at 24 ppm (Myzus persicae [4]) | percent control (mortality or growth inhibition) at 200 ppm (Plutella xylostella [5]) | mortality at 12 ppm (Myzus persicae [6])

CC(NC(=O)c1cc(OC(F)(F)F)cc(C2(C#N)CC2)c1)c1nccnc1-c1ncccn1 (centres unmarked) [P46, 3-(1-cyanocyclopropyl)-N-[1-(3-pyrimidin-2-ylpyrazin-2-yl)ethyl]-5-(trifluoromethoxy) benzamide]
≥ 80%: percent control (mortality, anti-feedant effect or growth inhibition) at 200 ppm (Chilo suppressalis) | mortality at 200 ppm (Myzus persicae [1]) | percent control (mortality or growth inhibition) at 200 ppm (Euschistus heros) | percent control (mortality or growth inhibition) at 200 ppm (Diabrotica balteata) | percent control (mortality, anti-feedant effect or growth inhibition) at 200 ppm (Spodoptera littoralis [3]) | mortality at 24 ppm (Myzus persicae [4]) | percent control (mortality or growth inhibition) at 200 ppm (Plutella xylostella [5]) | mortality at 12 ppm (Myzus persicae [6])

CC(NC(=O)c1cc(C(F)(F)F)cc(C(F)(F)C2CC2)c1)c1nccnc1-c1ncc(C2CC2)cn1 (centres unmarked) [P39, 3-[cyclopropyl(difluoro)methyl]-N-[1-[3-(5-cyclopropylpyrimidin-2-yl)pyrazin-2-yl]ethyl]-5-(trifluoromethyl)benzamide]
≥ 80%: percent control (mortality, anti-feedant effect or growth inhibition) at 200 ppm (Chilo suppressalis) | percent control (mortality, anti-feedant effect or growth inhibition) at 12.5 ppm (Spodoptera littoralis [7]) | mortality at 500 ppm (Plutella xylostella [8]) | percent control (mortality or growth inhibition) at 200 ppm (Diabrotica balteata) | percent control (mortality, anti-feedant effect or growth inhibition) at 200 ppm (Spodoptera littoralis [3]) | percent control (mortality or growth inhibition) at 200 ppm (Plutella xylostella [5])
